The values below come from ChEMBL document CHEMBL4028801, “A multifactorial approach to hepatobiliary transporter assessment enables improved therapeutic compound development” (Toxicol Sci, 2013).

The target of data set [1] is T1, ATP-binding cassette sub-family C member 4 (Homo sapiens, UniProt O15439).
T1 sequence (O15439 whole entry): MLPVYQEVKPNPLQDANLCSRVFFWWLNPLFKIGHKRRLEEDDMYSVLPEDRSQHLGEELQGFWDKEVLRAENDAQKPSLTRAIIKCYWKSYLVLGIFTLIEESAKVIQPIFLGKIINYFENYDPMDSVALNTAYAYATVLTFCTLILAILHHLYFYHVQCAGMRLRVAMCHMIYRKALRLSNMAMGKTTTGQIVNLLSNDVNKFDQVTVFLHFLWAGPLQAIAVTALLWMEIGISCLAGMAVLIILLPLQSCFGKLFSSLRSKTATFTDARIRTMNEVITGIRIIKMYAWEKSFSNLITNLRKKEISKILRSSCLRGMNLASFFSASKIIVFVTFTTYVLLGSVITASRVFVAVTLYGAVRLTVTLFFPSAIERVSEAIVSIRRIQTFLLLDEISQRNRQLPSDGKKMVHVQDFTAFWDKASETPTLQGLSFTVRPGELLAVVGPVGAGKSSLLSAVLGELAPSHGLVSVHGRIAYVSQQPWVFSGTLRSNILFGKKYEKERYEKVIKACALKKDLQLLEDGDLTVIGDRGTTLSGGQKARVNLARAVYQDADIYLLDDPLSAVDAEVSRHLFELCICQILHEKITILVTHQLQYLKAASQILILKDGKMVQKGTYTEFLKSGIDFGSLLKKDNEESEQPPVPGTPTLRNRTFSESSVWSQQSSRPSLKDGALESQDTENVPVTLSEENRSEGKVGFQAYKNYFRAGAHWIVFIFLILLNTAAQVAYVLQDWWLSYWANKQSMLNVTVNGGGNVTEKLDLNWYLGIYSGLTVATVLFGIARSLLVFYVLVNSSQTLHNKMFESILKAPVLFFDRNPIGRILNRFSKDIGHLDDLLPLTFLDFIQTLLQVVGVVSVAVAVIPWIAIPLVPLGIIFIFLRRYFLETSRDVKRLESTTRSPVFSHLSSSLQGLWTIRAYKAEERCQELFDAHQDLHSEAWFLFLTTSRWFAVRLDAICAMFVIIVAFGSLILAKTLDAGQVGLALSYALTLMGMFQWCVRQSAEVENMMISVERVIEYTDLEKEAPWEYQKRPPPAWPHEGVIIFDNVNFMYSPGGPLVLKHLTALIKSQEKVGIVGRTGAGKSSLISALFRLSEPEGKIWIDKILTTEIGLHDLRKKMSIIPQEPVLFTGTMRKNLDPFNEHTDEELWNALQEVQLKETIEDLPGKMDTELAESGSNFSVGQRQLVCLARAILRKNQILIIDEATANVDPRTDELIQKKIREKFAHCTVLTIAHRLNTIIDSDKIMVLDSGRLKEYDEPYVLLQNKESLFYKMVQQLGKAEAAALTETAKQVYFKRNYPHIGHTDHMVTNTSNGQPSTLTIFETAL
The data set is described as follows: Inhibition of human MRP4 overexpressed in Sf9 cell membrane vesicles assessed as uptake of [3H]-estradiol-17beta-D-glucuronide in presence of ATP and GSH measured after 20 mins by membrane vesicle transport assay. Type of data set: ADME, cell-based.

A further data set has as its target Bile salt export pump (Homo sapiens, UniProt O95342). The data set is described as follows: Inhibition of human BSEP overexpressed in Sf9 cell membrane vesicles assessed as uptake of [3H]-taurocholate in presence of ATP measured after 15 to 20 mins by membrane vesicle transport assay. It is filed as ADME, cell-based.
Data set [2] in a line: Ratio of drug concentration at steady state in human at 600 mg administered twice weekly followed by 600 mg administered once in a week measured after 84 hrs to IC50 for human MRP4 overexpressed in Sf9 insect cells. It is filed as ADME. To be noted: in vivo.
Data set [3] is described as follows: AUC in human at 600 mg administered twice weekly followed by 600 mg administered once in a week measured after 84 hrs. Set-up: dose 600 mg, time < 84 hr. Particulars: in vivo. It is filed as ADME.
Data set [4] can be described thus: Ratio of drug concentration at steady state in human at 600 mg administered twice weekly followed by 600 mg administered once in a week measured after 84 hrs to IC50 for human BSEP overexpressed in Sf9 insect cells. Type of data set: ADME. Particulars: in vivo.
Data set [5] is described as follows: Ratio of drug concentration at steady state in human at 600 mg administered twice weekly followed by 600 mg administered once in a week measured after 84 hrs to IC50 for human MRP2 overexpressed in Sf9 insect cells. Particulars: in vivo. Type of data set: ADME.
A short description of data set [6]: Drug concentration at steady state in human at 600 mg administered twice weekly followed by 600 mg administered once in a week measured after 84 hrs. It is filed as ADME. Particulars: in vivo, read-out: Css.
Data set [7] concerns the target ATP-binding cassette sub-family C member 3 (Homo sapiens, UniProt O15438). The data set is described as follows: Inhibition of human MRP3 overexpressed in Sf9 insect cell membrane vesicles assessed as uptake of [3H]-estradiol-17beta-D-glucuronide in presence of ATP and GSH measured after 10 mins by membrane vesicle transport assay. Type of data set: ADME, cell-based.

The target of data set [8] is ATP-binding cassette sub-family C member 2 (Homo sapiens, UniProt Q92887). The experiment in a line: Inhibition of human MRP2 overexpressed in Sf9 cell membrane vesicles assessed as uptake of [3H]-estradiol-17beta-D-glucuronide in presence of ATP and GSH measured after 20 mins by membrane vesicle transport assay.
A short description of data set [9]: Ratio of drug concentration at steady state in human at 600 mg administered twice weekly followed by 600 mg administered once in a week measured after 84 hrs to IC50 for human MRP3 overexpressed in Sf9 insect cells. To be noted: in vivo. Type of data set: ADME.
Data set [10] can be described thus: Ratio of drug concentration at steady state in human at 400 to 800 mg, po QD used as formulation with ritonavir measured after 24 hrs to IC50 for human MRP3 overexpressed in Sf9 insect cells. Type of data set: ADME, organism-based. Particulars: in vivo.
Data set [11] in a line: AUC in human at 400 to 800 mg, po QD used as formulation with ritonavir measured after 24 hrs. Type of data set: ADME, organism-based. To be noted: in vivo.
Data set [12] can be described thus: Ratio of drug concentration at steady state in human at 400 to 800 mg, po QD used as formulation with ritonavir measured after 24 hrs to IC50 for human MRP4 overexpressed in Sf9 insect cells. Type of data set: ADME, organism-based. To be noted: in vivo.
Data set [13] can be described thus: Drug concentration at steady state in human at 400 to 800 mg, po QD used as formulation with ritonavir measured after 24 hrs. Type of data set: ADME, organism-based. To be noted: in vivo, read-out: Css.
A short description of data set [14]: Ratio of drug concentration at steady state in human at 400 to 800 mg, po QD used as formulation with ritonavir measured after 24 hrs to IC50 for human BSEP overexpressed in Sf9 insect cells. It is filed as ADME, organism-based. Particulars: in vivo.
The nature of data set [15]: AUC in human at 150 to 300 mg, po QD after 24 hrs. It is filed as ADME, organism-based. Particulars: in vivo.
Data set [16] can be described thus: Ratio of drug concentration at steady state in human at 150 to 300 mg, po QD after 24 hrs to IC50 for human BSEP overexpressed in Sf9 insect cells. Type of data set: ADME, organism-based. Particulars: in vivo.
Data set [17] in a line: Drug concentration at steady state in human at 150 to 300 mg, po QD after 24 hrs. To be noted: in vivo, read-out: Css. Type of data set: ADME, organism-based.
Data set [18] is described as follows: Ratio of drug concentration at steady state in human at 150 to 300 mg, po QD after 24 hrs to IC50 for human MRP4 overexpressed in Sf9 insect cells. Type of data set: ADME, organism-based. To be noted: in vivo.
A short description of data set [19]: Ratio of drug concentration at steady state in human at 150 to 300 mg, po QD after 24 hrs to IC50 for human MRP3 overexpressed in Sf9 insect cells. It is filed as ADME, organism-based. Particulars: in vivo.
Data set [20] in a line: AUC in human at 2 g, po QD after 24 hrs. Set-up: dose 2 g, time < 24 hr, route oral. It is filed as ADME, organism-based. Particulars: in vivo.
Data set [21] can be described thus: Drug concentration at steady state in human at 2 g, po QD after 24 hrs. It is filed as ADME, organism-based. To be noted: in vivo, read-out: Css.
A short description of data set [22]: Ratio of drug concentration at steady state in human at 2 g, po QD after 24 hrs to IC50 for human BSEP overexpressed in Sf9 insect cells. Particulars: in vivo. It is filed as ADME, organism-based.

Chain of ATP-binding cassette sub-family C member 2 (Q92887 whole entry): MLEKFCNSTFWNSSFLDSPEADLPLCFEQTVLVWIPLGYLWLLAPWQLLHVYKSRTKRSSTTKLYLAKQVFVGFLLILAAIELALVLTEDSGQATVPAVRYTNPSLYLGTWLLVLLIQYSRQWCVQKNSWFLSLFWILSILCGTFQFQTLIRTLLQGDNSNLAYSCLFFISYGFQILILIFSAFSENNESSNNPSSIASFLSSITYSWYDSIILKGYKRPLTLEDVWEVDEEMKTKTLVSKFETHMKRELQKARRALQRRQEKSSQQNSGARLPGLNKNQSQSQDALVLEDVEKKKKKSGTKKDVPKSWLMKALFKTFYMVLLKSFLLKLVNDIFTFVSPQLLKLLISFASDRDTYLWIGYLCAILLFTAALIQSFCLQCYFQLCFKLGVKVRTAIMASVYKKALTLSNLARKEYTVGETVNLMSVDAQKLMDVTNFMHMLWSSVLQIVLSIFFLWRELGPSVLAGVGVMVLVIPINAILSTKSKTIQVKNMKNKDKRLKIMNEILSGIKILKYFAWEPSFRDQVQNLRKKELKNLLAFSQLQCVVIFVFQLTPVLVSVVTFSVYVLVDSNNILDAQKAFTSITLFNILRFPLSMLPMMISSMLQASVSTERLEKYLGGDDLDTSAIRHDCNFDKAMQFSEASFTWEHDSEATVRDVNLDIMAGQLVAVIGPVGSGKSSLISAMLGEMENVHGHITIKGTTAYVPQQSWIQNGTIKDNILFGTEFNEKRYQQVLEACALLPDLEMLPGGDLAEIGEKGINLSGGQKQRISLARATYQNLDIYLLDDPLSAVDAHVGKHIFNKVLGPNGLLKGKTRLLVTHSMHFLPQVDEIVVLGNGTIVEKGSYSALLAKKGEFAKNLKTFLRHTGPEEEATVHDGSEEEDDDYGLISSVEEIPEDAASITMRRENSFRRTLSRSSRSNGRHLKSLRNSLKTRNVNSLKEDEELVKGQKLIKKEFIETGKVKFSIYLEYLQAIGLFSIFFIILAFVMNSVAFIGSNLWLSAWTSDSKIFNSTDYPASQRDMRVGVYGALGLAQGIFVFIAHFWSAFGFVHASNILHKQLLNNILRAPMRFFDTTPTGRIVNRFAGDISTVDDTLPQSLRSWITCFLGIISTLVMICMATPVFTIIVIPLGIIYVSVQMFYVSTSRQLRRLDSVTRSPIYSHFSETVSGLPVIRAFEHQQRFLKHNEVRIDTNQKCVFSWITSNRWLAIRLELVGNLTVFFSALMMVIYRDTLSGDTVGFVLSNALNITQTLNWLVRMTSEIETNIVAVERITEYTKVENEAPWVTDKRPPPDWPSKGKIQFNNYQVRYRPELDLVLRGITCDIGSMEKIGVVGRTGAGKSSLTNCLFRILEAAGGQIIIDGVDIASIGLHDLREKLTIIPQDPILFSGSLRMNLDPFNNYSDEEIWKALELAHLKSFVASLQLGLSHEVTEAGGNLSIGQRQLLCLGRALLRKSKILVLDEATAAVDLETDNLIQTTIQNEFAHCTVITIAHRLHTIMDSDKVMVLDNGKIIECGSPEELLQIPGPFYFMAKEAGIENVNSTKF
Chain of ATP-binding cassette sub-family C member 3 (O15438 whole entry): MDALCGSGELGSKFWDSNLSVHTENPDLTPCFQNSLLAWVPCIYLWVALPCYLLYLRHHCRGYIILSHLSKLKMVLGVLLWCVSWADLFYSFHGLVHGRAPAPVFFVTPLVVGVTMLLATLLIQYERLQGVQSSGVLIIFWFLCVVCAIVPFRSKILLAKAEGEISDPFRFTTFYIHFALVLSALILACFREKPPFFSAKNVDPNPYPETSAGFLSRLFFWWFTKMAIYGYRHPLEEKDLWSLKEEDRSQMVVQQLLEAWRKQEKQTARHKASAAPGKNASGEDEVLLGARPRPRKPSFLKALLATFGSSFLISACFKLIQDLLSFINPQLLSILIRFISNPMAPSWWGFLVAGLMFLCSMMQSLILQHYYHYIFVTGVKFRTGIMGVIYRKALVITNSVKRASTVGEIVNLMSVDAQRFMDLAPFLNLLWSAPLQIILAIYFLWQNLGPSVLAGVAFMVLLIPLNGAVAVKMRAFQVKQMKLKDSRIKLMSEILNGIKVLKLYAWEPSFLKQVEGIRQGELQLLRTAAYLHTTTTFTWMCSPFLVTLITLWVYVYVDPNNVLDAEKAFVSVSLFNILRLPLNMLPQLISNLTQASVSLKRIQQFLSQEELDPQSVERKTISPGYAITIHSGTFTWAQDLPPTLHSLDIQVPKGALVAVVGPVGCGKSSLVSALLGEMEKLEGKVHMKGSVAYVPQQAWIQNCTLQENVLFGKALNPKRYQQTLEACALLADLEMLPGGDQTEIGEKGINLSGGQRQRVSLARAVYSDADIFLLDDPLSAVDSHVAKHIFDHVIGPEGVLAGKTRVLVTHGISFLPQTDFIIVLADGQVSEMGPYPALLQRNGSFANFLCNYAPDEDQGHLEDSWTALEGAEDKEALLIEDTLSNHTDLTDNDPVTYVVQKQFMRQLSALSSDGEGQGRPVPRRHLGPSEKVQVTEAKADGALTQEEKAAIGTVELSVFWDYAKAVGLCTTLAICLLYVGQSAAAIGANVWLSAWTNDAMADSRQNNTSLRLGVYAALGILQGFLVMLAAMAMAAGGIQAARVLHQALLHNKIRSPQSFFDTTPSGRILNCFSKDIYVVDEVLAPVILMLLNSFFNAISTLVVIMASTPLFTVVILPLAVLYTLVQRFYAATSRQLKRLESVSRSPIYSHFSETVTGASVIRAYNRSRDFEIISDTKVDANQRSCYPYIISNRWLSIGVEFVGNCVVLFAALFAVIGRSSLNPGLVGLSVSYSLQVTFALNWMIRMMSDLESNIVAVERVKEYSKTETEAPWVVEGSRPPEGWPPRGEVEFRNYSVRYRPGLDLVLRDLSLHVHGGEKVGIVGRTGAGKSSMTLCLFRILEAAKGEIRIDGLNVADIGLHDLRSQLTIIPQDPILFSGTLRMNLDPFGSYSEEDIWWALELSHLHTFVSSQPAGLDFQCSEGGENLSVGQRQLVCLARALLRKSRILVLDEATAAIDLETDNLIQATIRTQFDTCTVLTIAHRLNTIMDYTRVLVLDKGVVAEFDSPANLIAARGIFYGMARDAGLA
Chain of Bile salt export pump (O95342 whole entry): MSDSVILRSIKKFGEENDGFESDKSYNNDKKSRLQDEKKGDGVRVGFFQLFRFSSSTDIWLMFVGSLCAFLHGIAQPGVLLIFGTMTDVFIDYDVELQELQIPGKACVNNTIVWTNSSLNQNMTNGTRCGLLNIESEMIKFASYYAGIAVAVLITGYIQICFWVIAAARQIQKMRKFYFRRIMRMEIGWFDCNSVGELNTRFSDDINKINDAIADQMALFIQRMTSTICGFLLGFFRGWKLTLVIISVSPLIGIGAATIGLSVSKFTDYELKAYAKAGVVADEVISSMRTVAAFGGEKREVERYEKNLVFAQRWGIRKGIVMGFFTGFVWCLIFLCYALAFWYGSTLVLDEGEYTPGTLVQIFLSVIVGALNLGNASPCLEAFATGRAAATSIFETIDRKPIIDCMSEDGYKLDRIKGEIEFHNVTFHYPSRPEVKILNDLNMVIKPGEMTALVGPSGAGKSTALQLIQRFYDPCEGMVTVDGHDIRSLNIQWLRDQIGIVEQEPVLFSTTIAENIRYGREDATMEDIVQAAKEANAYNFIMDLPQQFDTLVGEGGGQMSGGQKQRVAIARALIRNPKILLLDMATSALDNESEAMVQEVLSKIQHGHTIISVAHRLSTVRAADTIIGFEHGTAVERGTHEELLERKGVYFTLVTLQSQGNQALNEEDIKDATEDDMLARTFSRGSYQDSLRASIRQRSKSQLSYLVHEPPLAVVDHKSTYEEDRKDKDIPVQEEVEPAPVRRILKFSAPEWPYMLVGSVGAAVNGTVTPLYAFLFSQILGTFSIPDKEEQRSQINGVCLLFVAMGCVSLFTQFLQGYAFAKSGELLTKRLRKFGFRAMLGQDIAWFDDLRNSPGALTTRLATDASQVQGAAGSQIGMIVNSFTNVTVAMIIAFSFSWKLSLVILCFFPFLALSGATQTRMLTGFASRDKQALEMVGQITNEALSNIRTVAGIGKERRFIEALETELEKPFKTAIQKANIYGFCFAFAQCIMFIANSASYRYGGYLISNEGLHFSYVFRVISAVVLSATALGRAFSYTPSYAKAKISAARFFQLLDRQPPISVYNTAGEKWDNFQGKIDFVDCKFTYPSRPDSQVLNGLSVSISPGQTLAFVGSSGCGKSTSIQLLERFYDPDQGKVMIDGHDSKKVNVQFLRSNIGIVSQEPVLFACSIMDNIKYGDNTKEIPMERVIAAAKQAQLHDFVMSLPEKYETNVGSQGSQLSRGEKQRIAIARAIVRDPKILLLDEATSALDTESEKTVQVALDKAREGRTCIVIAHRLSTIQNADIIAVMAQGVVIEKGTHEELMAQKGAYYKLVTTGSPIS

`CO[C@H]1/C=C/O[C@@]2(C)Oc3c(C)c(O)c4c(O)c(c(/C=N/N5CCN(C6CCCC6)CC5)c(O)c4c3C2=O)NC(=O)/C(C)=C\C=C\[C@H](C)[C@H](O)[C@@H](C)[C@@H](O)[C@@H](C)[C@H](OC(C)=O)[C@@H]1C` [RIFAPENTINE]: the IC50 in [1] was 35.9 µM; at Bile salt export pump, 9.91 µM; in [7], 80.9 µM; in data set [8], 16.3 µM. Also, the Ratio in data set [2] is 0.131; in [4], 0.474; in [5] it was 0.288; in data set [9] it was 0.058. The same compound displayed an area under the curve (AUC) at 84 h in [3] of 395 µM·h. For the same compound, the concentration at 84 h in data set [6] amounted to 4.7 µM.

As to `Cc1cccc(C)c1OCC(=O)N[C@@H](Cc1ccccc1)[C@@H](O)C[C@H](Cc1ccccc1)NC(=O)[C@H](C(C)C)N1CCCNC1=O` [LOPINAVIR], the IC50 in [1] is 47 µM; in data set [7] it was 21 µM; in data set [8] it was above 133 µM. Moreover, the Ratio in data set [10] is on record as 0.314; in data set [12], 0.14; in data set [14] it was 0.381. Also, in [11], the exposure (AUC) at 24 h came out at 158 µM·h. Further, the concentration at 24 h in data set [13] was found to be 6.6 µM.

On to `CCCCC1=NC2(CCCC2)C(=O)N1Cc1ccc(-c2ccccc2-c2nnn[nH]2)cc1` [IRBESARTAN], for which, in data set [15], the area under the curve (AUC) at 24 h came to 52.9 µM·h. In addition, the values for the 50% inhibitory concentration (IC50) (in data set [1]; on Bile salt export pump; in data set [7]) were 83.2 µM, 7.31 µM and 21.1 µM, respectively. In addition, the Ratio in data set [16] is on record as 0.301; in data set [18], 0.026; in [19], 0.104. Besides, the concentration at 24 h in [17] was 2.2 µM.

On to `CCOC(=O)C(C)(C)Oc1ccc(Cl)cc1` [CLOFIBRATE], for which the IC50 in [1] is above 133 µM; at Bile salt export pump, 71 µM; in data set [7], above 133 µM; in [8], above 133 µM. Besides, the AUC at 24 h in [20] was found to be 649 µM·h. Moreover, the concentration at 24 h in data set [21] came to 27.1 µM. For the same compound, the Ratio in data set [22] came to 0.381.

A word on the IC50: it is the midpoint of a concentration-inhibition curve. By AUC is commonly meant the area under the concentration-time curve, a measure of exposure. Higher therefore signals high exposure.
